Data as given in article PMC10410440, “Preclinical PK investigation of a novel IDO1/TDO dual inhibitor—SHR9146 in mouse plasma and tissues by LC-MS/MS” (Frontiers in Oncology, 2023).
Where “and” joins values, the source holds several entries; their conditions need not be identical. Identical values can stand only once. Like-named read-outs stand apart in the source and are kept apart here.

Experiment: Tissue distribution of SHR9146 in mice after oral gavage of 40 mg/kg
Assay type: in vivo, ICR mice
Settings: female, 40 mg/kg oral gavage; for concentration at 1 h / concentration at 3 h / concentration at 6 h / concentration at 24 h: ICR, mouse, po
Procedure: ICR mice with body weight 16–26 g were supplied by Shanghai Lingchang Biotechnology Co., Ltd. (animal breeding license number SCXK (Shanghai) 2013-0018) and housed at Shanghai Institute of Materia Medica, Chinese Academy of Sciences [animal use license number SYXK (Shanghai) 2015-0027]. The mice used in this study were fasted overnight for 12 h but had free access to water. Food was supplied 4 h post-dose. All experiments in this study were conducted in accordance with the Guidelines for the Care and Use of Laboratory Animals of Shanghai Institute of Materia Medica, Chinese Academy of Sciences.
Another set of 30 mice were randomly assigned into five groups with equal numbers, males and females, for tissue distribution study with oral gavage at a single dose of 40 mg/kg at predetermined different time points: pre-dose and post dose at 1, 3, 6, and 24 h, respectively. The whole brain, heart, liver, spleen, lung, kidney, bladder, pancreas, testis, ovary, uterus, stomach, small intestine, adrenal gland, skin, skeletal muscle, thyroid gland, and abdominal fat tissues as well as the whole blood and plasma samples were harvested. Tissue samples were washed with 0.9% sodium chloride solution to remove the residual blood or contents, blotted on a filter paper, and stored at −70°C prior to the analysis.
Protein precipitation was selected for the pretreatment of both the plasma and the tissue homogenate prepared after thawing at room temperature, cut into pieces, and homogenized with a quintuple methanol–water mixture (1:1, v/v) for each tissue sample.
Briefly as follows, an aliquot of 25-μL plasma or tissue homogenate was spiked with 100 μL of internal standard solution (1 μg/mL for plasma, 0.2 μg/mL for tissue homogenate) and 300 μL of methanol added and vortex mixed for 60 s. The mixture was then centrifuged at 14,000 rpm at 4°C for 5.0 min, and the supernatant was diluted with methanol–water (4:1, v/v) in a ratio of 1:9 for the plasma or 1:1 for the tissue homogenate, and 5 μL of the resulting solution was injected for the LC-MS/MS analysis.
After oral administration of 40 mg/kg SHR9146, samples in different tissues at predetermined time points (pre-drug administration, post-drug administration at 1, 3, 6, and 24 h) were collected and prepared for the analysis. The drug concentrations of SHR9146 (μg/g or μg/mL) were determined for each mouse, and the mean and standard deviation were further obtained (Table S7).

[1] = 24 h, individual mice, 40 mg/kg

SHR9146 concentration in Bladder (1 h, individual mice, 40 mg/kg): 21.036 µg/g and 16.223 µg/g | SHR9146 concentration in Kidney (1 h, individual mice, 40 mg/kg): 18.490 µg/g and 14.219 µg/g | SHR9146 concentration in Liver (1 h, individual mice, 40 mg/kg): 26.622 µg/g and 23.393 µg/g | SHR9146 concentration in Lung (1 h, individual mice, 40 mg/kg): 20.029 µg/g and 15.217 µg/g | SHR9146 concentration in Pancreas (1 h, individual mice, 40 mg/kg): 22.508 µg/g and 15.532 µg/g | SHR9146 concentration in Small intestine (1 h, individual mice, 40 mg/kg): 22.755 µg/g and 23.199 µg/g | SHR9146 concentration in Small intestine (3 h, individual mice, 40 mg/kg): 22.446 µg/g and 12.038 µg/g | SHR9146 concentration in Adrenal gland (6 h, individual mice, 40 mg/kg): 4.009 µg/g and 0.427 µg/g and 1.219 µg/g | SHR9146 concentration in Bladder (6 h, individual mice, 40 mg/kg): 1.685 μg/g and BLQ and 0.201 μg/g | SHR9146 concentration in Brain (6 h, individual mice, 40 mg/kg): BLQ | SHR9146 concentration in Kidney (6 h, individual mice, 40 mg/kg): 3.007 µg/g and 0.546 µg/g and 0.744 µg/g | SHR9146 concentration in Liver (6 h, individual mice, 40 mg/kg): 4.132 µg/g and 0.621 µg/g and 1.090 µg/g | SHR9146 concentration in Lung (6 h, individual mice, 40 mg/kg): 2.446 µg/g and 0.717 µg/g and 0.984 µg/g | SHR9146 concentration in Ovary (6 h, individual mice, 40 mg/kg): BLQ | SHR9146 concentration in Pancreas (6 h, individual mice, 40 mg/kg): 1.674 µg/g and 0.089 µg/g and 0.150 µg/g | SHR9146 concentration in Skeletal muscle (6 h, individual mice, 40 mg/kg): BLQ | SHR9146 concentration in Small intestine (6 h, individual mice, 40 mg/kg): 1.815 µg/g and 0.395 µg/g and 0.288 µg/g | SHR9146 concentration in Spleen (6 h, individual mice, 40 mg/kg): BLQ | SHR9146 concentration in Uterus (6 h, individual mice, 40 mg/kg): BLQ | SHR9146 concentration in Whole blood (6 h, individual mice, 40 mg/kg): BLQ | SHR9146 concentration in Abdominal fat (24 h, individual mice): BLQ | SHR9146 concentration in Bladder (24 h, individual mice): BLQ | SHR9146 concentration in Brain (24 h, individual mice): BLQ | SHR9146 concentration in Heart (24 h, individual mice): BLQ | SHR9146 concentration in Kidney (24 h, individual mice): BLQ | SHR9146 concentration in Ovary (24 h, individual mice): BLQ | SHR9146 concentration in Pancreas (24 h, individual mice): BLQ | SHR9146 concentration in Plasma (24 h, individual mice): BLQ | SHR9146 concentration in Skeletal muscle (24 h, individual mice): BLQ | SHR9146 concentration in Skin (24 h, individual mice): BLQ | SHR9146 concentration in Small intestine (24 h, individual mice): BLQ | SHR9146 concentration in Spleen (24 h, individual mice): BLQ | SHR9146 concentration in Uterus (24 h, individual mice): BLQ | SHR9146 concentration in Whole blood (24 h, individual mice): BLQ | SHR9146 concentration in thyroid gland (24 h, individual mice): BLQ | SHR9146 concentration in Adrenal gland [1]: 0.185 µg/g | SHR9146 concentration in Liver [1]: BLQ and 0.058 μg/g | SHR9146 concentration in Lung [1]: 0.151 µg/g and 0.191 µg/g | concentration at 1 h (abdominal fat, 40 mg/kg, 1 h, Mean (n=3), read-out: SHR9146 concentration in Abdominal fat): 13500 ng/g | concentration at 1 h (abdominal fat, 40 mg/kg, 1 h, individual mice, read-out: SHR9146 concentration in Abdominal fat): 11600 ng/g | concentration at 3 h (abdominal fat, 40 mg/kg, 3 h, Mean (n=3), read-out: SHR9146 concentration in Abdominal fat): 8930 ng/g | concentration at 6 h (abdominal fat, 40 mg/kg, 6 h, Mean (n=3), read-out: SHR9146 concentration in Abdominal fat): 416 ng/g | concentration at 1 h (adrenal gland, 40 mg/kg, 1 h, Mean (n=3), read-out: SHR9146 concentration in Adrenal gland): 36600 ng/g | concentration at 1 h (adrenal gland, 40 mg/kg, 1 h, individual mice, read-out: SHR9146 concentration in Adrenal gland): 31300 ng/g | concentration at 3 h (adrenal gland, 40 mg/kg, 3 h, Mean (n=3), read-out: SHR9146 concentration in Adrenal gland): 27800 ng/g | concentration at 6 h (adrenal gland, 40 mg/kg, 6 h, Mean (n=3), read-out: SHR9146 concentration in Adrenal gland): 1880 ng/g | concentration at 24 h (adrenal gland, 40 mg/kg, 24 h, Mean (n=3), read-out: SHR9146 concentration in Adrenal gland): 195 ng/g | concentration at 24 h (adrenal gland, 40 mg/kg, 24 h, individual mice, read-out: SHR9146 concentration in Adrenal gland): 214 ng/g | concentration at 1 h (bladder, 40 mg/kg, 1 h, Mean (n=3), read-out: SHR9146 concentration in Bladder): 16800 ng/g | concentration at 1 h (bladder, 40 mg/kg, 1 h, individual mice, read-out: SHR9146 concentration in Bladder): 13200 ng/g | concentration at 3 h (bladder, 40 mg/kg, 3 h, Mean (n=3), read-out: SHR9146 concentration in Bladder): 10500 ng/g | concentration at 6 h (bladder, 40 mg/kg, 6 h, Mean (n=3), read-out: SHR9146 concentration in Bladder): 629 ng/g | concentration at 1 h (brain, 40 mg/kg, 1 h, Mean (n=3), read-out: SHR9146 concentration in Brain): 2370 ng/g | concentration at 1 h (brain, 40 mg/kg, 1 h, individual mice, read-out: SHR9146 concentration in Brain): 2190 ng/g | concentration at 3 h (brain, 40 mg/kg, 3 h, Mean (n=3), read-out: SHR9146 concentration in Brain): 1560 ng/g | concentration at 6 h (brain, 40 mg/kg, 6 h, Mean (n=3), read-out: SHR9146 concentration in Brain): 87 ng/g | concentration at 6 h (brain, 40 mg/kg, 6 h, individual mice, read-out: SHR9146 concentration in Brain): 261 ng/g | concentration at 1 h (heart, 40 mg/kg, 1 h, Mean (n=3), read-out: SHR9146 concentration in Heart): 9540 ng/g | concentration at 1 h (heart, 40 mg/kg, 1 h, individual mice, read-out: SHR9146 concentration in Heart): 7410 ng/g | concentration at 3 h (heart, 40 mg/kg, 3 h, Mean (n=3), read-out: SHR9146 concentration in Heart): 7040 ng/g | concentration at 6 h (heart, 40 mg/kg, 6 h, Mean (n=3), read-out: SHR9146 concentration in Heart): 334 ng/g | concentration at 1 h (kidney, 40 mg/kg, 1 h, Mean (n=3), read-out: SHR9146 concentration in Kidney): 15300 ng/g
Structure (SMILES): OCCn1cc(-c2ccc(N3CCC([C@H]4c5c(F)cccc5-c5cncn54)CC3)cc2)cn1 [SHR9146]
SHR9146 concentration in Bladder (3 h, individual mice, 40 mg/kg): 10.878 µg/g and 14.604 µg/g and 5.984 µg/g | SHR9146 concentration in Kidney (3 h, individual mice, 40 mg/kg): 12.786 µg/g and 17.400 µg/g and 8.011 µg/g | SHR9146 concentration in Liver (3 h, individual mice, 40 mg/kg): 20.374 µg/g and 27.066 µg/g and 11.815 µg/g | SHR9146 concentration in Lung (3 h, individual mice, 40 mg/kg): 12.019 µg/g and 16.499 µg/g and 48.938 µg/g | SHR9146 concentration in Pancreas (3 h, individual mice, 40 mg/kg): 13.466 µg/g and 17.374 µg/g and 6.520 µg/g
